Results taken from US20230141198A1, “PYRAZOL[…]” (THE KITASATO INSTITUTE, priority 2019, published 2023).

Key:
Assay type in all cases: cell-based
human opioid κ receptor = target: T1, human opioid κ receptor (Homo sapiens, UniProt P41145); assay: Opioid receptor function test (agonist activity, Lance Ultra cAMP kit), κ receptor; details: for Emax: maximum reaction relative to control drug U-69593 taken as 100%
T1 construct: host or cells: CHO cells
Description: (§1) Opioid Receptor Function Test
(§2) Functional activity of the compound provided by the present invention on μ, δ, and κ opioid receptors was examined.
(§3) Method: Using a Lance Ultra cAMP kit (Perkin Elmer), the functional activity was examined by a predetermined method. In evaluation of agonist activity, CHO cells expressing each of human opioid receptors (δ, μ, and κ: accession numbers and catalog numbers are described below) were reacted with a test compound in an assay buffer (1× HBSS, […], pH 7.4, […] isobutylmethylxanthine (IBMX), 7.5% BSA) in the presence of 10 μM forskolin for 30 minutes. Subsequently, a cAMP detection reagent in the kit was added. One hour later, time-resolved fluorescence measurement was performed using an EnVision plate reader (Perkin Elmer). The test compound and each control drug (δ: SNC 80, μ: DAMGO, κ: U-69593) were evaluated in a concentration range of 10^−12 to 10^−5 M. A dose reaction curve of the test compound was determined from a fluorescence value at 665 nm, and an EC50 value and an Emax value were calculated. The Emax value was determined as a ratio of a maximum reaction of the test compound when a maximum reaction of each control drug was taken as 100%.

hERG channel = target: T2, hERG channel (Homo sapiens, UniProt Q12809); assay: hERG potassium channel inhibition test (auto patch clamp); details: hERG channel stably expressing CHO cells, perfused at room temperature for 5 minutes
T2 construct: host or cells: CHO cells
Method: Ether-a-Go-Go Related Gene (hERG) Potassium Channel Inhibition Test
A test was performed using hERG channel stably expressing CHO cells (purchased from Channelopathy Foundation) with a Port-a-Patch auto patch clamping device (Nanion Technologies). A membrane potential of the cells was held at −80 mV, and then a test pulse of −50 mV for 1.5 seconds was applied at a frequency of once every 10 seconds following a depolarization pulse of +20 mV for 1.5 seconds. An hERG current was confirmed by a tail current induced by the test pulse. A test compound was dissolved in an extracellular solution ([…] NaCl, 4 mM KCl, 1.82 mM CaCl2, 1 mM MgCl2, 105 mM D(+)-glucose, 10 mM HEPES, pH 7.4) and perfused at room temperature for 5 minutes. An inhibition ratio was determined from a ratio of a tail current value after application of the compound when a maximum tail current value before application of the compound was taken as 100%. For the test, cells having a peak current value of the tail current of 300 pA or more, tail current run-down of less than 10% of a current initial value, and a leak current of less than 200 pA were used.

human opioid δ receptor = target: T3, human opioid δ receptor (Homo sapiens, UniProt P41143); assay: Opioid receptor function test (agonist activity, Lance Ultra cAMP kit), δ receptor; details: for Emax: maximum reaction relative to control drug SNC 80 taken as 100%
T3 construct: host or cells: CHO cells
Description: as §1, §2, §3

human opioid μ receptor = target: T4, human opioid μ receptor (Homo sapiens, UniProt P35372); assay: Opioid receptor function test (agonist activity, Lance Ultra cAMP kit), μ receptor; details: for Emax: maximum reaction relative to control drug DAMGO taken as 100%
T4 construct: host or cells: CHO cells
Description: as §1, §2, §3

T2 sequence (Q12809 whole entry, the tested form may be a part): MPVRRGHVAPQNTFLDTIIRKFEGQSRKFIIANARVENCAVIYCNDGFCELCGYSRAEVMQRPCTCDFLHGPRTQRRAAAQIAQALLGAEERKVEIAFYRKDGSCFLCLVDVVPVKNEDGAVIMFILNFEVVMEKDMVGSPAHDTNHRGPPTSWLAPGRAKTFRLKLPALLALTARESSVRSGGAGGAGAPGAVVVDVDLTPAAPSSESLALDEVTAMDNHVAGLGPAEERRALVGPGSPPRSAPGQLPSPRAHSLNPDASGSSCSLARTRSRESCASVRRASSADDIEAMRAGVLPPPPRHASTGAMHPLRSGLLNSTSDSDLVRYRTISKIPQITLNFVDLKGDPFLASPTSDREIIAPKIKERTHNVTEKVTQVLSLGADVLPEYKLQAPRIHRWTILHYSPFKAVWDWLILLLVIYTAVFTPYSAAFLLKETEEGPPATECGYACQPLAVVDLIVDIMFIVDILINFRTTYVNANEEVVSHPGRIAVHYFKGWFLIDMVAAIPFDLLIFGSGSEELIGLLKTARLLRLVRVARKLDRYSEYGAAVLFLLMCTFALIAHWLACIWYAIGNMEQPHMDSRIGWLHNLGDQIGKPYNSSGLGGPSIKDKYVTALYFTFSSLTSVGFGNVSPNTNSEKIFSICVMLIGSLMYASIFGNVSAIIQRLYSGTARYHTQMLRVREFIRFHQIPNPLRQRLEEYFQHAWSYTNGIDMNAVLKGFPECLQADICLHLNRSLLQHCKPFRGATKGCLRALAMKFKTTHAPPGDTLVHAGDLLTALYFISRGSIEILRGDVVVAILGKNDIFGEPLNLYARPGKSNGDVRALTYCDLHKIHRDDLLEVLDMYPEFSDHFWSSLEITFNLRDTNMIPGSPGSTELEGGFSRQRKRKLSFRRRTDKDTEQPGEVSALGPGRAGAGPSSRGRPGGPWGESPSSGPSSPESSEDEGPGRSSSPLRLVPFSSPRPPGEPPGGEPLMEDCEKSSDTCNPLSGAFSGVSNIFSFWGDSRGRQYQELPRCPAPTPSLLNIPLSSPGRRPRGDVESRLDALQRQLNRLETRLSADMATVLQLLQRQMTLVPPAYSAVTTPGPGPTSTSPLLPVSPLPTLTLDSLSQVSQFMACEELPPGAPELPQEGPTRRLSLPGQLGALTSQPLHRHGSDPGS
T1 sequence (P41145 whole entry): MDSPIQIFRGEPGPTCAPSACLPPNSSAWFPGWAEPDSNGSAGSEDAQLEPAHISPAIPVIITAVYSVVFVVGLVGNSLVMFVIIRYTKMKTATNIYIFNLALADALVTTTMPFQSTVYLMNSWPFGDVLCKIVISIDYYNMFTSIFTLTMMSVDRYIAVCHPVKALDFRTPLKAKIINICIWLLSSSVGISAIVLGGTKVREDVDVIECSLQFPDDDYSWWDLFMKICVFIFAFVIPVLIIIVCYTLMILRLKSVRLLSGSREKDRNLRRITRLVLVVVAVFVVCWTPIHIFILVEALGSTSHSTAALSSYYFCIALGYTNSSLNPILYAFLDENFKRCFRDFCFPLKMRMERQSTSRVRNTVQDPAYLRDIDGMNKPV
T4 sequence (P35372 whole entry): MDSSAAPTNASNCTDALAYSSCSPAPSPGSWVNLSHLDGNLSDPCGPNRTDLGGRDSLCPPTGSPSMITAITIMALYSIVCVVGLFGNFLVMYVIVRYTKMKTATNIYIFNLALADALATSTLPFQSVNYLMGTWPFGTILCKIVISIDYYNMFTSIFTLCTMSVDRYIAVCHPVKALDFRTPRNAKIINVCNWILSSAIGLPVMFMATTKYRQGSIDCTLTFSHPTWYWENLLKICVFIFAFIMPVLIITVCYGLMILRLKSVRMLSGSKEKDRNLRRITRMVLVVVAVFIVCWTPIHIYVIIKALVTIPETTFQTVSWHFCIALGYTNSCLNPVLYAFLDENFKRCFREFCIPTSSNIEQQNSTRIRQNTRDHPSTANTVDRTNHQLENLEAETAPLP
T3 sequence (P41143 whole entry): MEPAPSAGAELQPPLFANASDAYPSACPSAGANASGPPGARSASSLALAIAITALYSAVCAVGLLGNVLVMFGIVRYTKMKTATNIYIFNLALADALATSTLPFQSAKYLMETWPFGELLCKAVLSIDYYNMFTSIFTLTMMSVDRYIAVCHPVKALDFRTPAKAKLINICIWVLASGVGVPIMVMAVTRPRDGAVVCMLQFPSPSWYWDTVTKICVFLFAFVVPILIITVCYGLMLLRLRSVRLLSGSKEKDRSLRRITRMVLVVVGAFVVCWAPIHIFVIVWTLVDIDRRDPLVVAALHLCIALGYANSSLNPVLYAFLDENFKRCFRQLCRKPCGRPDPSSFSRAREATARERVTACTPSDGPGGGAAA

Structure (SMILES) | EC50 (human opioid κ receptor) [nM] | Emax (human opioid κ receptor) [%] | hERG inhibitory effect (tail current inhibition) (hERG channel) | EC50 (human opioid δ receptor) [nM] | Emax (human opioid δ receptor) [%] | EC50 (human opioid μ receptor) [nM] | Emax (human opioid μ receptor) [%]
Cc1c2c(nn1C(C)C)C[C@]13CCN(CC4CC4)[C@H](Cc4ccc(O)cc41)[C@]3(O)C2 [Compound 22, (6R,6aS,11aR)-14-(cyclopropylmethyl)-9-isopropyl methyl-5,6,9,11-tetrahydro-6,11a-(epiminoethano)naphtho[2,1-f]indazole-2,6a(7H)-diol] | 13 | 35 | only weak inhibitory effect | 0.18 | 107 | 15 | 15
Cc1c2c(nn1C(C)(C)C)C[C@]13CCN(CC4CC4)[C@H](Cc4ccc(O)cc41)[C@]3(O)C2 [Compound 24, (6R,6aS,11aR)-9-(tert-butyl)-14-(cyclopropylmethyl)-8-methyl-5,6,9,11-tetrahydro-6,11a-(epiminoethano)naphtho[2,1-f]indazole-2,6a(7H)-diol] | 17 | 23 | only weak inhibitory effect | 0.14 | 108 |  | 
Cc1c2c(nn1C1CCCC1)C[C@]13CCN(CC4CC4)[C@H](Cc4ccc(O)cc41)[C@]3(O)C2 [Compound 87, (6R,6aS,11aR)-9-cyclopentyl-14-(cyclopropylmethyl)-8-methyl-5,6,9,11-tetrahydro-6,11a-(epiminoethano)naphtho[2,1-f]indazole-2,6a(7H)-diol] | 59 | 30 |  | 0.11 | 106 | 28 | 24
Cc1nn(CCO)c2c1C[C@@]1(O)[C@H]3Cc4ccc(O)cc4[C@@]1(CCN3CC1CC1)C2 [Compound 44, (6R,6aS,11aR)-14-(cyclopropylmethyl)-10-(2-hydroxyethyl)-8-methyl-5,6,10,11-tetrahydro-6,11a-(epiminoethano)naphtho[2,1-f]indazole-2,6a(7H)-diol] |  |  | only weak inhibitory effect |  |  |  | 
Cc1nn(C(C)C)c2c1C[C@@]1(O)[C@H]3Cc4ccc(O)cc4[C@@]1(CCN3CC1CC1)C2 [Compound 23, (6R,6aS,11aR)-14-(cyclopropylmethyl)-10-isopropyl-8-methyl-5,6,10,11-tetrahydro-6,11a-(epiminoethano)naphtho[2,1-f]indazole-2,6a(7H)-diol] |  |  | only weak inhibitory effect | 0.48 | 95 |  | 
Cc1c2c(nn1C1CCN(C)CC1)C[C@]13CCN(CC4CC4)[C@H](Cc4ccc(O)cc41)[C@]3(O)C2 [Compound 92, (6R,6aS,11aR)-14-(cyclopropylmethyl)-8-methyl-9-(1-methylpiperidin-4-yl)-5,6,9,11-tetrahydro-6,11a-(epiminoethano)naphtho[2,1-f]indazole-2,6a(7H)-diol] | 16 | 20 |  | 0.51 | 103 | 52 | 17
Cc1c2c(nn1C1CC1)C[C@]13CCN(CC4CC4)[C@H](Cc4ccc(O)cc41)[C@]3(O)C2 [Compound 83, (6R,6aS,11aR)-9-cyclopropyl-14-(cyclopropylmethyl)-8-methyl-5,6,9,11-tetrahydro-6,11a-(epiminoethano)naphtho[2,1-f]indazole-2,6a(7H)-diol] | 50 | 30 |  | 0.13 | 99 | 11 | 16
